What was measured:
windgrass = experiment: Test D postemergence; type: in vivo, Apera spica-venti; conditions: scale 0 to 100
Outline: (§1)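 Visual 0-100 rating (100 = complete control) against untreated plants, made 14 to 21 days after treatment in a controlled environment. Compounds, formulated with surfactant in non-phytotoxic solvent, were applied either to seeds just sown in silt loam or to 1- to 4-leaf plants (2 to 18 cm) grown in peat-based medium.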

mustard, wild = experiment: Test D preemergence; type: in vivo, Sinapis arvensis; conditions: Preemergence, scale 0 to 100
Outline: as §1

galium [1] = experiment: Test D preemergence; type: in vivo, Galium aparine; conditions: for Plant response rating, Galium: Preemergence, scale 0 to 100
From the text: (§2) Seeds of plant species selected from bluegrass (annual bluegrass, Poa annua), blackgrass (Alopecurus myosuroides), canarygrass (littleseed canarygrass, Phalaris minor), chickweed (common chickweed, Stellaria media), galium (catchweed bedstraw, Galium aparine), bromegrass, downy (downy bromegrass, Bromus tectorum), field poppy (Papaver rhoeas), field violet (Viola arvensis), foxtail, green (green foxtail, Setaria viridis), deadnettle (henbit deadnettle, Lamium amplexicaule), ryegrass, Italian (Italian ryegrass, Lolium multiflorum), kochia (Kochia scoparia), lambsquarters (Chenopodium album), oilseed rape (Brassica napus), pigweed (redroot pigweed, Amaranthus retroflexus), chamomile (scentless chamomile, Matricaria inodora), speedwell (bird's-eye speedwell, Veronica persica), barley, spring (spring barley, Hordeum vulgare), wheat, spring (spring wheat, Triticum aestivum), buckwheat, wild (wild buckwheat, Polygonum convolvulus), mustard, wild (wild mustard, Sinapis arvensis), oat, wild (wild oat, Avena fatua), radish, wild (wild radish, Raphanus raphanistrum), windgrass (Apera spica-venti), Russian thistle (Salsola kali), barley, winter (winter barley, Hordeum vulgare), and wheat, winter (winter wheat, Triticum aestivum) were planted into a silt loam soil and treated preemergence with test chemicals formulated in a non-phytotoxic solvent mixture which included a surfactant.
(§3) At the same time, these species were planted in pots containing Redi-Earth® planting medium (Scotts Company, 14111 Scottslawn Road, Marysville, Ohio 43041) comprising spaghnum peat moss, vermiculite, wetting agent and starter nutrients and treated with postemergence applications of the test chemicals formulated in the same manner. Plants ranged in height from 2 to 18 cm (1- to 4-leaf stage). Treated plants and controls were maintained in a controlled growth environment for 14 to 21 days after which time all species were compared to controls and visually evaluated. Plant response ratings, summarized in Table D, are based on a scale of 0 to 100 where 0 is no effect and 100 is complete control. A dash (-) response means no test result.

chickweed [2] = experiment: Test D preemergence; type: in vivo, Stellaria media; conditions: for Plant response rating, Chickweed: Preemergence, scale 0 to 100
Outline: as §1

blackgrass [3] = experiment: Test D preemergence; type: in vivo, Alopecurus myosuroides; conditions: for Plant response rating, Blackgrass: Preemergence, scale 0 to 100
From the text: as §2, §3

oilseed rape [4] = experiment: Test D preemergence; type: in vivo, Brassica napus; conditions: for Plant response rating, Oilseed Rape: Preemergence, scale 0 to 100
From the text: as §2, §3

galium [5] = experiment: Test D postemergence; type: in vivo, Galium aparine; conditions: scale 0 to 100
From the text: as §2, §3

chickweed [6] = experiment: Test D postemergence; type: in vivo, Stellaria media; conditions: scale 0 to 100
From the text: as §2, §3

bluegrass [7] = experiment: Test D postemergence; type: in vivo, Poa annua; conditions: scale 0 to 100
From the text: as §2, §3

field poppy [8] = experiment: Test D preemergence; type: in vivo, Papaver rhoeas; conditions: for Plant response rating, Field Poppy: Preemergence, scale 0 to 100
From the text: as §2, §3

wheat, winter = experiment: Test D postemergence; type: in vivo, Triticum aestivum; conditions: scale 0 to 100
Outline: as §1

wheat, spring = experiment: Test D postemergence; type: in vivo, Triticum aestivum; conditions: scale 0 to 100
Outline: as §1

foxtail, green = experiment: Test D postemergence; type: in vivo, Setaria viridis; conditions: scale 0 to 100
From the text: as §2, §3

ryegrass, Italian = experiment: Test D preemergence; type: in vivo, Lolium multiflorum; conditions: for Plant response rating, Ryegrass, Italian: Preemergence, scale 0 to 100
From the text: as §2, §3

bromegrass, downy = experiment: Test D postemergence; type: in vivo, Bromus tectorum; conditions: scale 0 to 100
Outline: as §1

bluegrass [9] = experiment: Test D preemergence; type: in vivo, Poa annua; conditions: for Plant response rating, Bluegrass: Preemergence, scale 0 to 100
From the text: as §2, §3

blackgrass [10] = experiment: Test D postemergence; type: in vivo, Alopecurus myosuroides; conditions: scale 0 to 100
From the text: as §2, §3

field poppy [11] = experiment: Test D postemergence; type: in vivo, Papaver rhoeas; conditions: scale 0 to 100
Outline: as §1

oilseed rape [12] = experiment: Test D postemergence; type: in vivo, Brassica napus; conditions: scale 0 to 100
From the text: as §2, §3

oat, wild = experiment: Test D preemergence; type: in vivo, Avena fatua; conditions: for Plant response rating, Oat, Wild: Preemergence, scale 0 to 100
Outline: as §1

[13] = 16 g ai/ha, taken as preemergence

CCc1cc(C(=O)NOC(C)C)nn1Cc1cccc(OC(F)(F)F)c1 [Compound 70]
Plant response rating, Windgrass (windgrass; Postemergence, 16 g ai/ha): 0 | Windgrass plant response rating (windgrass; Postemergence, 31 g ai/ha): 0 | Windgrass plant response rating (windgrass; Postemergence, 125 g ai/ha): 0 | Windgrass plant response rating (windgrass; Postemergence, 250 g ai/ha): 0 | Windgrass plant response rating (windgrass; postemergence, 62 g ai/ha): 0 | Plant response rating, Mustard, Wild (mustard, wild; 31 g ai/ha): 0 | Plant response rating, Mustard, Wild (mustard, wild; 62 g ai/ha): 100 | Plant response rating, Mustard, Wild (mustard, wild; 125 g ai/ha): 100 | Plant response rating, Mustard, Wild (mustard, wild; 250 g ai/ha): 100 | Plant response rating (scale 0 to 100), Galium (galium [1]; [13]): 0 | Plant response rating, Galium (galium [1]; 31 g ai/ha): 0 | Plant response rating, Galium (galium [1]; 62 g ai/ha): 10 | Plant response rating, Galium (galium [1]; 250 g ai/ha): 40 | Plant response rating (scale 0 to 100), Chickweed (chickweed [2]; [13]): 0 | Plant response rating, Chickweed (chickweed [2]; 31 g ai/ha): 0 | Plant response rating, Chickweed (chickweed [2]; 62 g ai/ha): 10 | Plant response rating, Chickweed (chickweed [2]; 125 g ai/ha): 100 | Plant response rating, Chickweed (chickweed [2]; 250 g ai/ha): 100 | Plant response rating (scale 0 to 100), Blackgrass (blackgrass [3]; [13]): 0 | Plant response rating, Blackgrass (blackgrass [3]; 31 g ai/ha): 0 | Plant response rating, Blackgrass (blackgrass [3]; 62 g ai/ha): 5 | Plant response rating, Blackgrass (blackgrass [3]; 125 g ai/ha): 10 | Plant response rating, Blackgrass (blackgrass [3]; 250 g ai/ha): 30 | Plant response rating (scale 0 to 100), Oilseed Rape (oilseed rape [4]; [13]): 0 | Plant response rating, Oilseed Rape (oilseed rape [4]; 31 g ai/ha): 0 | Plant response rating, Oilseed Rape (oilseed rape [4]; 62 g ai/ha): 0 | Plant response rating, Oilseed Rape (oilseed rape [4]; 125 g ai/ha): 10 | Plant response rating, Oilseed Rape (oilseed rape [4]; 250 g ai/ha): 40 | Plant response rating, Galium (galium [5]; Postemergence, 16 g ai/ha): 50 | Galium plant response rating (galium [5]; Postemergence, 31 g ai/ha): 60 | Galium plant response rating (galium [5]; Postemergence, 125 g ai/ha): 75 | Galium plant response rating (galium [5]; Postemergence, 250 g ai/ha): 80 | Galium plant response rating (galium [5]; postemergence, 62 g ai/ha): 70 | Plant response rating, Chickweed (chickweed [6]; Postemergence, 16 g ai/ha): 30 | Chickweed plant response rating (chickweed [6]; Postemergence, 31 g ai/ha): 30 | Chickweed plant response rating (chickweed [6]; Postemergence, 125 g ai/ha): 70 | Chickweed plant response rating (chickweed [6]; Postemergence, 250 g ai/ha): 85 | Chickweed plant response rating (chickweed [6]; postemergence, 62 g ai/ha): 70 | Plant response rating, Bluegrass (bluegrass [7]; Postemergence, 16 g ai/ha): 0 | Bluegrass plant response rating (bluegrass [7]; Postemergence, 31 g ai/ha): 0 | Bluegrass plant response rating (bluegrass [7]; Postemergence, 125 g ai/ha): 0 | Bluegrass plant response rating (bluegrass [7]; Postemergence, 250 g ai/ha): 0 | Bluegrass plant response rating (bluegrass [7]; postemergence, 62 g ai/ha): 0 | Plant response rating (scale 0 to 100), Field Poppy (field poppy [8]; [13]): 20 | Plant response rating, Field Poppy (field poppy [8]; 31 g ai/ha): 100 | Plant response rating, Field Poppy (field poppy [8]; 62 g ai/ha): 100 | Plant response rating, Field Poppy (field poppy [8]; 125 g ai/ha): 90 | Plant response rating, Field Poppy (field poppy [8]; 250 g ai/ha): 100 | Plant response rating, Wheat, Winter (wheat, winter; Postemergence, 16 g ai/ha): 0 | Wheat, Winter plant response rating (wheat, winter; Postemergence, 31 g ai/ha): 0 | Wheat, Winter plant response rating (wheat, winter; Postemergence, 125 g ai/ha): 5 | Wheat, Winter plant response rating (wheat, winter; Postemergence, 250 g ai/ha): 10 | Wheat, Winter plant response rating (wheat, winter; postemergence, 62 g ai/ha): 5 | Plant response rating, Wheat, Spring (wheat, spring; Postemergence, 16 g ai/ha): 0 | Wheat, Spring plant response rating (wheat, spring; Postemergence, 31 g ai/ha): 5 | Wheat, Spring plant response rating (wheat, spring; Postemergence, 125 g ai/ha): 5 | Wheat, Spring plant response rating (wheat, spring; Postemergence, 250 g ai/ha): 10 | Wheat, Spring plant response rating (wheat, spring; postemergence, 62 g ai/ha): 5 | Plant response rating, Foxtail, Green (foxtail, green; Postemergence, 16 g ai/ha): 0 | Foxtail, Green plant response rating (foxtail, green; Postemergence, 31 g ai/ha): 15 | Foxtail, Green plant response rating (foxtail, green; Postemergence, 125 g ai/ha): 30 | Foxtail, Green plant response rating (foxtail, green; Postemergence, 250 g ai/ha): 60 | Foxtail, Green plant response rating (foxtail, green; postemergence, 62 g ai/ha): 0 | Plant response rating (scale 0 to 100), Ryegrass, Italian (ryegrass, Italian; [13]): 0 | Plant response rating, Ryegrass, Italian (ryegrass, Italian; 31 g ai/ha): 0 | Plant response rating, Ryegrass, Italian (ryegrass, Italian; 62 g ai/ha): 0 | Plant response rating, Ryegrass, Italian (ryegrass, Italian; 125 g ai/ha): 20 | Plant response rating, Ryegrass, Italian (ryegrass, Italian; 250 g ai/ha): 75 | Plant response rating, Bromegrass, Downy (bromegrass, downy; Postemergence, 16 g ai/ha): 0 | Bromegrass, Downy plant response rating (bromegrass, downy; Postemergence, 31 g ai/ha): 0 | Bromegrass, Downy plant response rating (bromegrass, downy; Postemergence, 125 g ai/ha): 0 | Bromegrass, Downy plant response rating (bromegrass, downy; Postemergence, 250 g ai/ha): 10 | Bromegrass, Downy plant response rating (bromegrass, downy; postemergence, 62 g ai/ha): 0 | Plant response rating (scale 0 to 100), Bluegrass (bluegrass [9]; [13]): 0 | Plant response rating, Bluegrass (bluegrass [9]; 31 g ai/ha): 0 | Plant response rating, Bluegrass (bluegrass [9]; 62 g ai/ha): 0 | Plant response rating, Bluegrass (bluegrass [9]; 125 g ai/ha): 0 | Plant response rating, Bluegrass (bluegrass [9]; 250 g ai/ha): 10 | Plant response rating, Blackgrass (blackgrass [10]; Postemergence, 16 g ai/ha): 0 | Blackgrass plant response rating (blackgrass [10]; Postemergence, 31 g ai/ha): 0 | Blackgrass plant response rating (blackgrass [10]; Postemergence, 125 g ai/ha): 0 | Blackgrass plant response rating (blackgrass [10]; Postemergence, 250 g ai/ha): 0 | Blackgrass plant response rating (blackgrass [10]; postemergence, 62 g ai/ha): 0 | Plant response rating, Field Poppy (field poppy [11]; Postemergence, 16 g ai/ha): 20 | Field Poppy plant response rating (field poppy [11]; Postemergence, 31 g ai/ha): 70 | Field Poppy plant response rating (field poppy [11]; Postemergence, 125 g ai/ha): 80 | Field Poppy plant response rating (field poppy [11]; Postemergence, 250 g ai/ha): 100 | Field Poppy plant response rating (field poppy [11]; postemergence, 62 g ai/ha): 75 | Plant response rating, Oilseed Rape (oilseed rape [12]; Postemergence, 16 g ai/ha): 20 | Oilseed Rape plant response rating (oilseed rape [12]; Postemergence, 31 g ai/ha): 40 | Oilseed Rape plant response rating (oilseed rape [12]; Postemergence, 125 g ai/ha): 60 | Oilseed Rape plant response rating (oilseed rape [12]; Postemergence, 250 g ai/ha): 80 | Oilseed Rape plant response rating (oilseed rape [12]; postemergence, 62 g ai/ha): 50 | Plant response rating (scale 0 to 100), Oat, Wild (oat, wild; [13]): 0 | Plant response rating, Oat, Wild (oat, wild; 31 g ai/ha): 0 | Plant response rating, Oat, Wild (oat, wild; 62 g ai/ha): 0 | Plant response rating, Oat, Wild (oat, wild; 125 g ai/ha): 5 | Plant response rating, Oat, Wild (oat, wild; 250 g ai/ha): 30
